According to patent publication US20140275166A1, “SPINTRAPS AND SPIN LABELS AND THEIR HYDROXYLAMINES FOR PERI- AND POST-MENOPAUSAL SYNDROME” (priority 2013, published 2014):
Where two headings read alike, the source gives them in different places.

Legend:
acute ischemic stroke = details: animal models versus humans; cited from earlier work
[1] = test system: perimenopausal symptoms, including hot flashes, sweating, and discomfort; assay: Oral treatment of peri- and post-menopausal symptoms in one patient; assay type: in vivo, human
Protocol: The reduced form of TEMPOL (TEMPOL-H) or equivalent pharmacologically-active spin label/spintrap is prepared by mixing together 2 grams of TEMPOL or a pharmacologically effective amount of another spin-label or spin trap such as methynitrosopropane, 20 grams of ascorbic acid or other reducing compound in 100 ml of distilled water. The formulation is used as is. The solution is slightly-bitter. The formulation can be administered diluted in a suitable liquid such as juice, tea, or coffee. An equivalent dry form as 10 mg of tempol mixed with 100 mg of ascorbic acid or equivalent reducing substance can be easily prepared in capsule or tablet form.
One-half ml of the above solution, comprising 10 mg TEMPOL plus 100 mg ascorbic acid, was administered orally 1-3 times a day to a 50 kg person with perimenopausal symptoms, including hot flashes, sweating, and discomfort.
Parental modes of administration such as intravenous, intramuscular, subcutaneous, intraperitoneal, transrectal and so forth are also possible, as are topical modes of administration such as in lotions, creams, gels, and topically-compatible suspensions and solutions.

[2] = test system: arterioles from intact and OVE females; details: cited from earlier work
SHR = details: cited from earlier work
[3] = test system: fibrocystic disease of breast; details: in vivo; cited from earlier work
[4] = 10 mg TEMPOL plus 100 mg ascorbic acid orally 1-3 times a day, 50 kg person

CC(C)(C)[N+]([O-])=Cc1ccc(S(=O)(=O)[O-])cc1S(=O)(=O)[O-].[Na+].[Na+] [NXY-059, disulfonyl PBN]
neuroprotective efficacy (acute ischemic stroke): effective in animal models, but not in humans

CC(C)(C)[N+]([O-])=Cc1ccccc1 [Phenylbutylnitrone, 1-alpha-phenyl-tert-butyl nitrone]
efficacy on perimenopausal symptoms ([1]; 100 mg dose per day): also effective

CC1(C)CC(O)CC(C)(C)N1[O] [TEMPOL, 4-hydroxy-TEMPO]
flow-induced increases in NO and subsequent vasodilation [2]: blunted flow-induced increases in NO and subsequent vasodilation
efficacy on perimenopausal symptoms ([1]; Tempol itself, without reducing agent, at the same doses): effective at the same doses
antihypertensive response (SHR; male SHR and female SHR given tempol for the first 15 weeks of life): had an antihypertensive response
antihypertensive response (SHR; postmenopausal female SHR): no response was observed
BP lowering by sex and age (SHR; young female versus young male SHR, and after menopause): more effective in lowering the BP of young female than young male SHR and became less effective after menopause

CC1(C)CC(O)CC(C)(C)N1O [TEMPOL-H, the hydroxylamine reduced form of the nitroxide 4-hydroxy-2,2,6,6-tetramethylpiperidin-1-yloxy]
skin changes typical of menopause ([1]; 10 mg TEMPOL plus 100 mg ascorbic acid orally 1-3 times a day): yet to develop the skin changes typical of menopause
effect on perimenopausal symptoms [1, 4]: disappearance of hot flashes, sweating, and discomfort
time to first results of treatment [1, 4]: 1-2 weeks
symptoms on cessation of treatment ([1]; after long-term relief, treatment stopped): symptoms eventually reappear on cessation of treatment
perimenopausal symptoms during earlier TEMPOL-H treatment for fibrocystic disease of breast ([1]; same patient, menses stopped): had not presented with perimenopausal symptoms
symptoms upon resumption of treatment ([1]; treatment resumed after cessation): symptoms disappear
efficacy in fibrocystic disease of breast [3]: effective
